Data reported in US20240285594A1, “COMPOSITIONS AND METHODS FOR TREATING PAIN IN ANIMALS” (North Carolina State University, priority 2023, published 2024).
“And” between values parts separate entries of the source, which are not always exact repeats. Equal entries are not always repeated. “Also recorded” adds a separate entry of the source. Where two headings read alike, the source gives them in different places.

Key:
[1] = cited from earlier work; for mitigation of pain associated with castration (and tail docking): earlier published studies in pigs, route as in the sentence
[2] = cited from earlier work
[3] = IM flunixin 2.2 mg/kg compared to ketoprofen 3 mg/kg and meloxicam 0.4 mg/kg; swine; cited from earlier work
cortisol = experiment: Serum cortisol after surgical or sham castration of piglets (Part I, physiological assessment); format: in vivo
Procedure: A total of 197 Large White×Duroc cross male piglets from 35 litters were enrolled in the study (Table 1). Piglets were individually identified using ear tags (Allflex Global Piglet ear tags, Allflex Livestock Intelligence, Madison, WI), weighed and randomly allocated to one of eight treatment groups (FIG. 1).
Lidocaine was buffered by mixing 2 ml of 8.4% Sodium Bicarbonate to 20 ml of 2% lidocaine HCl injectable solution to achieve a pH of 6.8 (Lidocaine Hydrochloride, Covetrus, Dublin, Ohio, US). […] Piglets were held by both rear legs by one caretaker with the abdomen facing the individual administrating treatment. Buffered lidocaine was injected intra-inguinally (Picture 1) by a second caretaker using a ½ inch needle (Ideal® D3 20 Gauge, Neogen, Lansing, MI) inserted into a syringe (Prima Tech® 2 cc Bottle Mount Vaccinator, Prima Tech USA, Kenansville, NC). A total of 1.5 ml of buffered lidocaine per injection site was administered intramuscularly (IM) into each inguinal canal (left and right) at a 40-degree angle 5-7 cm from the scrotum and 2-3 cm from the abdominal wall. Piglets enrolled in the control treatment (C, S, CF, SF−T1: (C) Castration plus physiological saline (IM and IN; n=25); T2: (S) Sham plus physiological saline (IM and IN; n=25); T5: (CF) Castration plus flunixin (IN; n=25); T6: (SF) Sham plus flunixin (IN; n=24)) were handled in an identical manner and 1.5 ml of sterile saline was injected in the same two locations as described previously.
Immediately following intra-inguinal injection, piglets enrolled in the FM treatment groups were held in sternal recumbency by one individual and 2.2 mg/kg (Banamine®, Merck Animal Health, Madison, NJ, US) was administered in one nostril using was a MAD® nasal intranasal mucosal atomization device (Telefex Incorporated, Wayne, PA, US) attached to a Prima Tech® 0.5 cc bottle mount vaccinator. The same individual administered the treatment by gently holding the piglet's snout using their non-dominant hand to steady the head and administered the drug with the other hand. Piglets in the control group were handled in the same manner in an equivalent volume of 0.2 ml of sterile saline was administered as described above.
Castration was performed by one trained caretaker from the farm. Piglets were picked up, individually held by both hind legs with head down, and two vertical incisions were made through the skin of the scrotum over each testicle using a scalpel blade. Once the incisions were made, testicles were exposed, spermatic cords cut, and testicles were completely removed by traction. A sham castration was performed to mimic similar handling conditions in which piglets were picked up, held in the same manner, and had pressure applied to the scrotal area by the same individual responsible for castration.
Blood was collected 24 h prior to (−24 h), 1 h (1 h), and 24 h post castration (24 h, FIG. 2). Blood samples were collected using the technique described in other studies. The orbital sinus cavity was punctured using an Excel® disposable hypodermic needle 20G (Exel International, Quebec, Canada) and deposited into a 4 ml BD® red vacutainer serum tube (Med Vet International, Mettawa, IL). All tubes were maintained in a cooler and centrifuged (2,000×g for 15 min at 4° C.) no more than eight hours post-collection to separate serum. […]
Serum cortisol concentrations were quantified using a commercially available EIA kit (Arbor Assays DetectX Cortisol EIA Kit, Product #K003). […]

[4] = female, Yorkshire cross, pig, in vivo, 2.2 mg/kg
Procedure: (§1) Six female Yorkshire cross grower pigs approximately 8 weeks of age with no history of flunixin administration in a 30-day period were sourced from a production farm and enrolled in the study. The pigs were determined to be healthy by veterinary physical examination and pigs initially weighed between 18.0-22.0 kg. The pigs were individually housed in climate-controlled rooms with a 12:12 light dark cycle at the North Carolina State University College of Veterinary Medicine to prevent cross contamination between pigs and damage to jugular catheters. The pens had non-slip flooring, allowed the pigs to move freely, provided enrichment, and were cleaned at least twice daily. The pigs had ad libitum access to water via a nipple drinker and were fed 0.5 quarts of Nature's Match twice daily. […] From the time of arrival until the end of the study, the pigs were monitored at least twice daily for general appearance, attitude, appetite, and wellbeing.
(§2) To facilitate jugular catheter placement, the pigs were sedated with Telazol®, reconstituted with ketamine and xylazine as previously described, intubated, and maintained on gas isoflurane anesthesia. A 22-gauge, 10 cm intravenous catheter (MILA, International, Inc., Florence, KY, USA) was placed into the jugular vein using sterile technique. It was sutured in place with 3-0 nylon and covered in Ioban™ (3M, St. Paul, MN, USA) to prevent damage. The pigs wore custom jackets throughout the study to protect the catheters and an extension set was attached to allow for easy catheter access and restraint-free blood collection.
(§3) All pigs were randomized to determine the first administration route. Group 1 (n=3 pigs) and Group 2 (n=3 pigs) were used in a cross-over design and received 2.2 mg/kg flunixin (Banamine®-S, Merck Animal Health, Madison, NJ, USA) by either the IM or IN route. Following a 5-day washout period, the pigs were administered 2.2 mg/kg flunixin via the opposite route. IN administration was completed using a MAD600 MADgic laryngo-tracheal mucosal atomization device (Teleflex Medical, Morrisville, NC, USA). The luer lock syringe was attached to this device and drug was placed into the nostril. Before administration, 0.22 mL of the drug was added to the device to account for dead space volume. After the IN dose, pigs were encouraged to keep their heads raised for approximately 10 seconds to prevent leakage of the drug out of the nasal cavity. Intramuscular administration was performed in the omotransversarius muscle using a 20G needle.
(§4) Blood samples were collected at 0 (pre-treatment), 0.16, 0.33, 0.5, 0.75, 1, 1.5, 2, 3, 4, 6, 8, 12, 18, 24, 36, 48, and 60 hours post treatment. To avoid heparin contamination in samples, at least 1 mL of blood was collected as a purge sample before 1-2 mL of blood was collected and placed into lithium heparin tubes (BD Vacutainer, Franklin Lakes, NJ, USA). The purge blood was injected back into the catheter before the catheter was flushed with 3-4 mL of heparinized saline to prevent coagulation. The blood tubes were placed on ice for no more than 1 hour before they were processed. Plasma was separated by centrifugation at 3500×g for 10 minutes at 4° C., equally split between two cryovials, mixed, and stored at −80° C. until analysis.
(§5) To prepare samples, 100 μL of plasma was pipetted into a clean borosilicate glass tube (disposable culture tubes, CWR). To pretreat the plasma, 500 μL of 4% phosphoric acid prepared in water was added to each tube. Solid phase extraction was performed on an oasis prime HLB 96 well μElution plate (Waters Corporation, Milford, MA, USA). The plate was prepared by conditioning the plate with 500 μL of methanol followed by 500 μL of ultrapure water.

[5] = Cross-over plasma pharmacokinetics of intranasal versus intramuscular flunixin;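 also: grower pigs about 8 weeks old weighing 18.0-22.0 kg, randomized cross-over of both routes separated by a 5-day washout, blood taken via jugular vein catheter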
Procedure: as §1, §2, §3, §4, §5

in vivo = conditions: female, Yorkshire cross, pig, plasma, 2.2 mg/kg
Procedure: as §1, §2, §3, §4, §5

[6] = Observations and limited gross necropsy of the nasal cavity after IN or IM flunixin; format: in vivo, grower pigs
Procedure: Six female Yorkshire cross grower pigs approximately 8 weeks of age with no history of flunixin administration in a 30-day period were sourced from a production farm and enrolled in the study. The pigs were determined to be healthy by veterinary physical examination and pigs initially weighed between 18.0-22.0 kg. The pigs were individually housed in climate-controlled rooms with a 12:12 light dark cycle at the North Carolina State University College of Veterinary Medicine to prevent cross contamination between pigs and damage to jugular catheters. The pens had non-slip flooring, allowed the pigs to move freely, provided enrichment, and were cleaned at least twice daily. The pigs had ad libitum access to water via a nipple drinker and were fed 0.5 quarts of Nature's Match twice daily. The pigs acclimated for 1-2 days before they were anesthetized for jugular catheter placement as described in the pilot study above and were provided approximately 24 hours to recover from anesthesia before the study began. From the time of arrival until the end of the study, the pigs were monitored at least twice daily for general appearance, attitude, appetite, and wellbeing.

[7] = IM flunixin in pigs; cited from earlier work
[8] = IV administration 2.2 mg/kg, piglets, Kittrell et al. (2020)
[9] = PO administration 3.3 mg/kg, piglets, Kittrell et al. (2020)
[10] = TD administration 3.3 mg/kg, piglets, Kittrell et al. (2020)
[11] = intramuscular 2.2 mg/kg, six grower pigs, plasma, median
[12] = intranasal 2.2 mg/kg, six grower pigs, plasma, median

SMILES: Cc1c(Nc2ncccc2C(=O)O)cccc1C(F)(F)F [flunixin meglumine]
- numerical decrease of cortisol concentrations ([1]; FM topically 24 h prior to castration vs saline-treated piglets, not significant): more than 30%
- mitigation of pain associated with castration (and tail docking) [1]: effective
- mitigation of pain associated with castration (and tail docking) ([1]; listed as flunixin): more effective; also recorded: superior
- total pain scores ([1]; immediately post castration, transdermal flunixin treated piglets, castrated piglets 4.9, video observation): 3.1
- cortisol concentrations ([1]; intramuscular FM, 2 h post-castration, vs castrated non-treated control, Nixon 2021): decreased cortisol concentrations
- rescue analgesia intervention ([1]; transdermal FM 24 h before castration, control pigs 54%): 29%
- half-life [2, 8]: 7.06 h
- maximum observed drug concentration [2, 8]: 12.03 µg/mL
- Cmax [2, 9]: 4990 ng/mL
- Tmax [2, 9]: 55.8 min
- half-life [2, 9]: 11.38 h
- Cmax [2, 10]: 40 ng/mL
- Tmax [2, 10]: 1350 min
- half-life [2, 10]: 38.89 h
- bioavailability ([2]; transdermal formulation, pigs): low bioavailability
- blood concentrations ([2]; transdermal formulation, swine, Kittrell et al. (2020)): low blood concentrations
- bioavailability [3]: higher bioavailability
- terminal half-life [3]: longer terminal half-life
- cortisol concentrations (cortisol; 1 h, sham castrated piglets (SF and SLF)): lowest cortisol concentrations
- cortisol concentrations (cortisol; 1 h post-castration, castrated piglets, compared to C (saline) and CL, FM 2.2 mg/kg intranasal, buffered lidocaine intra-inguinal, listed as FM): lower cortisol concentrations; also recorded: decreased cortisol concentrations; also recorded: effectively reduce
- cortisol concentrations (cortisol; 24 h post-castration, between treatments): not effective
- time flunixin was detectable in plasma post-administration [4]: up to 60 hours
- AUCinf of IM administration ([5]; 2.2 mg/kg IM, individual grower pig (Pig # 1-6, one line per pig), unit not given): 7.63 and 6.25 and 7.82 and 8.54 and 5.29 and 4.99
- AUCinf of IN administration ([5]; 2.2 mg/kg IN, individual grower pig (Pig # 1-6, one line per pig), unit not given): 2.98 and 8.90 and 7.07 and 4.98 and 4.74
- AUC Extrap [5, 11]: 0.3%
- λz [5, 11]: 0.1 h⁻¹
- AUC Extrap [5, 12]: 0.5%
- AUCinf [5, 12]: 4900 ng·h/mL
- HLλz [5, 12]: 7.4 h
- λz [5, 12]: 0.09 h⁻¹
- AUC(0-inf) (in vivo; im): 6900 ng·h/mL
- AUC(0-t) (in vivo; im): 6900 ng·h/mL
- CL/F (in vivo; im): 5 mL/min/kg
- Cmax (in vivo; im): 4000 ng/mL
- Tmax (in vivo; im): 12 min
- Vd/F (in vivo; im): 3.2 L/kg
- AUC(0-t) (in vivo; inhaled or intranasal): 4800 ng·h/mL
- CL/F (in vivo; inhaled or intranasal): 8.33 mL/min/kg
- Cmax (in vivo; inhaled or intranasal): 2700 ng/mL
- Tmax (in vivo; inhaled or intranasal): 12 min
- Vd/F (in vivo; inhaled or intranasal): 5.4 L/kg
- bioavailability (in vivo; other: intranasal): 88.5%
- adverse effects on the pigs ([6]; following IN or IM administration, 2.2 mg/kg): No major adverse effects
- limited gross necropsy of the nasal cavity ([6]; following euthanasia, after IN administration): no negative effects
- label withdrawal time [7]: 12 days
